Like-named read-outs stand apart in the source and are kept apart here.
Biological target: T1, TRPC5 (Homo sapiens, UniProt Q9UL62)
T1 construct: expressed in transfected cells; host or cells: HEK 293
T1 sequence (Q9UL62 1-973): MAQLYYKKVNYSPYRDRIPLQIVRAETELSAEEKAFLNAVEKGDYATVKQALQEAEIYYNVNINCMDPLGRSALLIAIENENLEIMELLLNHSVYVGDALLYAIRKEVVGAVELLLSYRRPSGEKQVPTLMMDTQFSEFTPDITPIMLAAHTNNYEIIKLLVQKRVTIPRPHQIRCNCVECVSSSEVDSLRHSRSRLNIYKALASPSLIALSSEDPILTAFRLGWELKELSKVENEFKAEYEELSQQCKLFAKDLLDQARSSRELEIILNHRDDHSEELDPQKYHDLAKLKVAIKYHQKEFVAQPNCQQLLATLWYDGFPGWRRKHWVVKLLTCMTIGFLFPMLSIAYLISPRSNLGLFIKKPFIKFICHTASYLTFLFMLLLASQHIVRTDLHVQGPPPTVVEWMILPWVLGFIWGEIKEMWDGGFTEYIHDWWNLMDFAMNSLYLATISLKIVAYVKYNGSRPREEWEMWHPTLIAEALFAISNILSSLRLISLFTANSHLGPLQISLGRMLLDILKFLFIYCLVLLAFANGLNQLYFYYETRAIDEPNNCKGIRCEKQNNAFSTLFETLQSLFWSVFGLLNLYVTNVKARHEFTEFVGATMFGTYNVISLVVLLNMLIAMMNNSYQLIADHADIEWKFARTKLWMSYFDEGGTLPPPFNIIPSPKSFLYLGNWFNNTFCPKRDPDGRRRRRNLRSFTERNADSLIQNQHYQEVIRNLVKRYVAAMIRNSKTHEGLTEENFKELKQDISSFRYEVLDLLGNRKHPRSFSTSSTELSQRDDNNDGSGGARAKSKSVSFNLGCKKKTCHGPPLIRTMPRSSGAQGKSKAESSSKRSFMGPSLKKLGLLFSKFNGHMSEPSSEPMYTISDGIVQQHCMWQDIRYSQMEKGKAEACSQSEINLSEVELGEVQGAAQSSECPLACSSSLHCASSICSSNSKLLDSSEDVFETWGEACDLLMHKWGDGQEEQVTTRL
Assay: TRPC5 automated patch clamp assay (Qpatch), current block after rosiglitazone stimulation
Format: cell-based
Details: HEK293 cells overexpressing TRPC5
Description: HEK 293 cells expressing human TRPC5 were harvested, re-suspended in serum free medium, and added to the automated platform and used within 2-3 hours. Internal and external physiological solutions were freshly prepared prior to the assay. The external solution contained: 145 mM NaCl, 4 mM KCl, 2 mM CaCl2), 1 mM MgCl2, 10 mM HEPES, 10 mM glucose, pH 7.4 with NaOH and 300 mOsm/L. The internal solution contained 120 mM L-aspartic acid, 120 mM CsOH·H2O, 20 mM CsCl, 2 mM MgCl2, 8.8 mM CaCl2), 10 mM EGTA, 10 mM HEPES, 10 mM Glucose, 0.1 mM GTP and 2 mM Na2ATP; pH 7.2 with CsOH and 290 mOsm/L. The free internal Ca2+ concentration was buffered to 1 μM.
The automated electrophysiological platform QPatch 16 from Sophion (Denmark) was used to carry out the compounds profiling. The series resistance and quality of seals were continuously monitored during the experiments. Data was analyzed using Sophion QPatch assay software 5.6 (Odense). IC50 values were calculated using a least squares regression algorithm (Hill equation).
To monitor the ion currents, a voltage ramp from −100 mV to +100 mV, over 300 ms, was applied every 10 seconds, from a holding potential of −60 mV.
After recording for a minimum of 60 seconds control period, Rosiglitazone (30 uM), was applied to activate the channel.

[1] = Table 3, rosiglitazone stimulation, 80 mV, read-out: TRPC5_QP_ XC50_80
[2] = Table 3, rosiglitazone stimulation, 100 mV, read-out: TRPC5_QP_ XC50_100
[3] = Table 5, rosiglitazone stimulation, 80 mV, read-out: TRPC5_QP_ XC50_80
[4] = Table 5, rosiglitazone stimulation, 100 mV, read-out: TRPC5_QP_ XC50_100
[5] = Table 4, rosiglitazone stimulation, 80 mV, read-out: TRPC5_QP_ XC50_80
[6] = Table 4, rosiglitazone stimulation, 100 mV, read-out: TRPC5_QP_ XC50_100
[7] = Table 6, read-out: TRPC5-QPatch IC50
[8] = rosiglitazone stimulation, 80 mV, read-out: TRPC5_QP XC50_80
[9] = rosiglitazone stimulation, 100 mV, read-out: TRPC5_QP XC50_100

SMILES	IC50 [1] [µM]	IC50 [2] [µM]	IC50 [5] [µM]	IC50 [6] [µM]	further results
O=c1[nH]ncc(N2CCN(Cc3ccc(Cl)cc3F)CC2)c1Cl	5 to 10	10 to 500			
O=C1CN(c2cn[nH]c(=O)c2Cl)CCN1Cc1ccc(C2CC2)cc1					IC50 [3]: 10 to 500 µM; IC50 [4]: 10 to 500 µM
O=C1CN(c2cn[nH]c(=O)c2Cl)CCN1Cc1ccccc1C(F)(F)F	1e-05 to 1	1e-05 to 1			
O=C1CN(c2cn[nH]c(=O)c2Cl)CCN1Cc1cccc(-c2ccccc2)c1			10 to 500	10 to 500	
COc1cc(F)ccc1CN1CCN(c2c(Cl)cn[nH]c2=O)CC1=O					IC50 [3]: 10 to 500 µM; IC50 [4]: 10 to 500 µM
O=c1[nH]ncc(N2CCc3c(ncn3-c3cccnc3C(F)(F)F)C2)c1Cl					IC50 [7]: 1 to 5 µM
O=C1CN(c2c(Cl)cn[nH]c2=O)CCN1Cc1cccc(C(F)(F)F)c1					IC50 [3]: 10 to 500 µM; IC50 [4]: 10 to 500 µM
CN1CCN(c2cn[nH]c(=O)c2Br)CC1					IC50 [8]: 10 to 500 µM; IC50 [9]: 10 to 500 µM
Cc1ccccc1CN1CCN(c2cn[nH]c(=O)c2CCC(C)C)CC1=O [drawing 695]	10 to 500	10 to 500			
O=c1[nH]ncc(N2CCN(Cc3cccnc3Oc3ccccc3)CC2)c1Cl					IC50 [3]: 5 to 10 µM; IC50 [4]: 5 to 10 µM
O=c1[nH]ncc(N2CCCNCC2)c1Br	10 to 500	10 to 500			
O=C1CN(c2cn[nH]c(=O)c2Cl)CCN1Cc1ccccc1Oc1ccccc1			5 to 10	5 to 10	
CS(=O)(=O)N1CCN(c2cn[nH]c(=O)c2Br)CC1					IC50 [8]: 10 to 500 µM; IC50 [9]: 10 to 500 µM
Cc1ccccc1CN1CCN(c2cn[nH]c(=O)c2C(F)(F)F)CC1=O	1 to 5	5 to 10			
O=C1CN(c2cn[nH]c(=O)c2Cl)CCN1Cc1c(F)cccc1F	1 to 5	1 to 5			
Cc1ccccc1CN1CCN(c2cn[nH]c(=O)c2Br)CC1C (stereo not drawn) [drawing 649]	10 to 500	10 to 500			

SMILES	IC50 [1] [µM]	IC50 [2] [µM]	IC50 [5] [µM]	IC50 [6] [µM]	further results
CC(C)(C)CN1CCN(c2cn[nH]c(=O)c2Br)CC1	10 to 500	10 to 500			
Cc1cc(F)ccc1CN1CCN(c2c(C)cn[nH]c2=O)CC1					IC50 [3]: 1 to 5 µM; IC50 [4]: 1 to 5 µM
O=C1CN(c2cn[nH]c(=O)c2Cl)CCN1Cc1cccc(Oc2ccccc2)c1			1 to 5	1 to 5	
O=c1[nH]ncc(N2CCN(CC(F)(F)F)CC2)c1Br	10 to 500	10 to 500			
O=c1[nH]ncc(N2CCc3c(ncn3Cc3ccccc3)C2)c1Cl [drawing 831]					IC50 [3]: 1 to 5 µM; IC50 [4]: 1 to 5 µM
O=C1CN(c2cn[nH]c(=O)c2Cl)CCN1Cc1ccc(Oc2ccccc2)cc1			10 to 500	10 to 500	
O=c1[nH]ncc(N2CCN(Cc3ccc(F)cc3Cl)CC2)c1Cl	1 to 5	5 to 10			
Cc1cc(F)ccc1CN1CCN(c2n[nH]c(=O)cc2C)CC1			10 to 500	10 to 500	
N#Cc1c(N2CCc3c(nnn3Cc3ccccc3C(F)(F)F)C2)cn[nH]c1=O [drawing 891]					IC50 [7]: 1 to 5 µM
Cc1ccccc1CN1CCN(c2cn[nH]c(=O)c2C2CC2)CC1=O			1 to 5	1 to 5	
Cc1cccnc1CN1CCN(c2cn[nH]c(=O)c2Cl)CC1			5 to 10	5 to 10	
Cn1ncc2c(CN3CCN(c4cn[nH]c(=O)c4Cl)CC3=O)cccc21			1 to 5	1 to 5	
Cc1n[nH]c(=O)c(N2CCN(Cc3ccccc3OC(F)(F)F)C(=O)C2)c1Cl					IC50 [3]: 5 to 10 µM; IC50 [4]: 5 to 10 µM
CCN(CC)C(=O)CN1CCN(c2cn[nH]c(=O)c2Cl)CC1=O			10 to 500	10 to 500	
O=C1CN(c2cn[nH]c(=O)c2Cl)CCN1Cc1cccc2ccccc12			1e-05 to 1	1e-05 to 1	

Reference: patent publication US20260184708A1, “PYRIDAZINONES AND METHODS OF USE THEREOF” (GFB (ABC), LLC, priority 2017, published 2026)
